The values that follow come from patent publication US9587239B2, “Methods of identifying and treating glioblastoma” (THE TRANSLATIONAL GENOMICS RESEARCH INSTITUTE, priority 2008, dated 2017).

What is called IC50 is the concentration at which inhibition is half-maximal. Low values mean greater potency in that assay, high ones weaker potency in that assay.

One assay deals with T98G cells. The assay can be described thus: Alamar Blue cell viability assay, T98G. It is filed as cell-based. The following applies: Homo sapiens, 48 hours. The procedure:
(§1) The Alamar Blue assay was used to assess viability as described previously (See Reference 29, incorporated by reference in its entirety). Briefly, 4000 cells of each population were seeded in quadruplicate wells of 96-well plastic plates in 200 μl of culture medium supplemented with 10% fetal bovine serum. Cells were treated with various conditions and the assay was developed 48 hours later. Alamar Blue was then added to the cells in a volume of 20 μl (10% of total volume) per well and the plates were incubated for 6 hours at 37° C. The plates were read on a fluorescence plate reader (excitation, 560 nm; emission, 600 nm). Averages of the fluorescence values were calculated and normalized to controls without Temozolomide.

Another assay has as its system SF767 cells. The assay is described as follows: Alamar Blue cell viability assay, SF767. It is filed as cell-based. As to conditions: Homo sapiens, 48 hours. How it is done: as §1
On the technique in general: Resazurin is reduced to fluorescent resorufin, in cell work by metabolically active cells.

On to `Cn1nnc2c(C(N)=O)ncn2c1=O` [Temozolomide], for which the half-inhibitory concentration (IC50) with T98G cells turned out to be 250 µM; in the assay with SF767 cells it was 125 µM.
